Literature values, collected in patent publication US20040265344A1, “Aloe suppositories” (priority 2003, published 2004).

Experiments:
[1] = test system: rat colonic mucosa sodium and potassium adenosine triphosphatase (ATP-ase); details: in vitro
[2] = test system: residual fluid volume

SMILES | effect on rat colonic mucosa sodium and potassium ATP-ase [1] | effect on the rise in residual fluid volume [2]
O=C1c2c(O)cccc2Cc2cc(CO)cc(O)c21 [Aloe-emodin-9-anthrone] | inhibited | 
CN(C)C(=O)C(CCN1CCC(O)(c2ccc(Cl)cc2)CC1)(c1ccccc1)c1ccccc1 [loperamide] |  | did not completely inhibit
